Experimental data reported in ChEMBL document CHEMBL1151632, “15-Deacetylsergeolide, a potent antileukemic quassinoid from Picrolemma pseudocoffea” (1984).

Tests used:
P388 [1] = assay: In vivo cytotoxicity against mouse P388 cells at 0.63 mg/kg relative to control; type: functional
P388 [2] = assay: In vivo cytotoxicity against mouse P388 cells at 1.25 mg/kg relative to control; type: functional

SMILES	T/C (P388 [1]) [%]	T/C (P388 [2]) [%]
COC(=O)[C@]12OC[C@]34[C@H]([C@@H](O)[C@@H]1O)[C@@]1(C)C=C5OC(=O)C=C5[C@@H](C)[C@@H]1C[C@H]3OC(=O)[C@H](O)[C@@H]24 [DEACETYLSERGEOLIDE]	150	–
COC(=O)[C@]12OC[C@]34[C@H]([C@@H](O)[C@@H]1O)[C@@]1(C)C=C5OC(=O)C=C5[C@@H](C)[C@@H]1C[C@H]3OC(=O)[C@H](OC(C)=O)[C@@H]24 [SERGEOLIDE]	–	169
